Laboratory results: patent US6211223A, “Indole derivatives useful in therapy” (Pfizer Inc., priority 1997, dated 2001)

How the values were obtained:
[1] = biological target: T1, cloned human ETA receptor (Homo sapiens, UniProt P25101); experiment: Test A: Binding Assay, competition with 125I-ET-1, Binding to ETA Receptors (selectivity versus Binding to ETB Receptors)
T1 sequence (P25101 21-427): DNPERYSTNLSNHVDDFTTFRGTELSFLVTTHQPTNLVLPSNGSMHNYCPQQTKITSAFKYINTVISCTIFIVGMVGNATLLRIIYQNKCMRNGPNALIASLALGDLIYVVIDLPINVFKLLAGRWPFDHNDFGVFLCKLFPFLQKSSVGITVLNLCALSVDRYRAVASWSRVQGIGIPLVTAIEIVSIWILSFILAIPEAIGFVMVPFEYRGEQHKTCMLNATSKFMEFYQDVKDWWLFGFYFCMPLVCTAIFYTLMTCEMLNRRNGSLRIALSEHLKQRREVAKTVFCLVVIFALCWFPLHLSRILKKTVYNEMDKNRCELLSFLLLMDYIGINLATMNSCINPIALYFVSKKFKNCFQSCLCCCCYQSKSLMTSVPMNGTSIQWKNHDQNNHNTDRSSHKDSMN
Description: Competition between test compounds and ^125 I-ET-1 binding to human endothelin receptors is determined as follows.
(§1) 25 μl of a 30 pM solution of [^125 I]Tyr^13 ET-1 (specific activity 2,200 Ci/mM) is mixed with 25 μl samples of test compound (final concentrations in the range 0.1 nM-50,000 nM). 200 μl of a solution containing cloned human ETA receptor (0.75 pmoles receptor protein/ml), 50 mM Tris, 0.5 mM CaCl2, 0.1% human serum albumen, 0.1% bacitracin, 0.05% Tween 20, pH 7.4 is added. The solution is mixed at 37° C. for 2 hours. After the incubation, the unbound ligand is separated from receptor bound ligand by filtration with a Brandel cell harvester, followed by three washes of buffer. Filter papers are counted for radioactivity, and the IC50 (the concentration of test compound at which 50% of the radiolabelled compound is unbound) determined for the concentration range tested.
as §1, with “concentration” for “concentrations in the range”, “ETB” for “ETA”, “(0.25” for “(0.75”

neointimal formation = conditions: rats, balloon angioplasty; S. Douglas et al, Circ Res, 75, 1994; cited from earlier work

selectivity for ETA receptors over ETB receptors ([1]; ETA over ETB) | IC50 (ETA) relative to that of its enantiomer ([1]; fraction of the IC50 (ETA) of the (-)-enantiomer) | Ki ([1]; human ETA receptor, read-out: binding affinity for ETA receptors (Ki)) [nM] | Structure (SMILES) | reduction in neointimal formation relative to control animals (neointimal formation) [%]
approximately 400 | approximately one quarter | 4.18 | COc1cc(C)ccc1S(=O)(=O)NC(=O)[C@@H](c1ccc2c(c1)OCO2)c1cn(C)c2cc(C(=O)O)ccc12 [Example 1, (S)-(+)-3-{1-(1,3-Benzodioxol-5-yl)-2-[(2-methoxy-4-methylphenyl)sulfonyl-amino]-2-oxoethyl}-1-methyl-1H-indole-6-carboxylic acid] | –
– | – | – | CCCOc1ccc2c(c1)[C@@H](c1ccc(OC)cc1OCC(=O)O)[C@H](C(=O)O)[C@H]2c1ccc2c(c1)OCO2 [SB-209670] | 50
